Results as given in the kinase profiling compilation of Christmann-Franck et al. (2016).

Tests used:
Assay in all cases: radiometric filter-binding kinase assay, Kinase HotSpot
Details in all cases: compound 0.5 µM; ATP 10 µM
GRK5 (human) = GRK5 (human) (UniProt P34947)
CAMK2B (human) = CAMK2B (human) (UniProt Q13554)
IGF1R (human) = IGF1R (human) (UniProt P08069)
AKT1 (human) = AKT1 (human) (UniProt P31749)
MAPK8 (human) = MAPK8 (human) (UniProt P45983)
TNK2 (human) = TNK2 (human) (UniProt Q07912)
TNK2 (human), sequence (Q07912 whole entry, looked up): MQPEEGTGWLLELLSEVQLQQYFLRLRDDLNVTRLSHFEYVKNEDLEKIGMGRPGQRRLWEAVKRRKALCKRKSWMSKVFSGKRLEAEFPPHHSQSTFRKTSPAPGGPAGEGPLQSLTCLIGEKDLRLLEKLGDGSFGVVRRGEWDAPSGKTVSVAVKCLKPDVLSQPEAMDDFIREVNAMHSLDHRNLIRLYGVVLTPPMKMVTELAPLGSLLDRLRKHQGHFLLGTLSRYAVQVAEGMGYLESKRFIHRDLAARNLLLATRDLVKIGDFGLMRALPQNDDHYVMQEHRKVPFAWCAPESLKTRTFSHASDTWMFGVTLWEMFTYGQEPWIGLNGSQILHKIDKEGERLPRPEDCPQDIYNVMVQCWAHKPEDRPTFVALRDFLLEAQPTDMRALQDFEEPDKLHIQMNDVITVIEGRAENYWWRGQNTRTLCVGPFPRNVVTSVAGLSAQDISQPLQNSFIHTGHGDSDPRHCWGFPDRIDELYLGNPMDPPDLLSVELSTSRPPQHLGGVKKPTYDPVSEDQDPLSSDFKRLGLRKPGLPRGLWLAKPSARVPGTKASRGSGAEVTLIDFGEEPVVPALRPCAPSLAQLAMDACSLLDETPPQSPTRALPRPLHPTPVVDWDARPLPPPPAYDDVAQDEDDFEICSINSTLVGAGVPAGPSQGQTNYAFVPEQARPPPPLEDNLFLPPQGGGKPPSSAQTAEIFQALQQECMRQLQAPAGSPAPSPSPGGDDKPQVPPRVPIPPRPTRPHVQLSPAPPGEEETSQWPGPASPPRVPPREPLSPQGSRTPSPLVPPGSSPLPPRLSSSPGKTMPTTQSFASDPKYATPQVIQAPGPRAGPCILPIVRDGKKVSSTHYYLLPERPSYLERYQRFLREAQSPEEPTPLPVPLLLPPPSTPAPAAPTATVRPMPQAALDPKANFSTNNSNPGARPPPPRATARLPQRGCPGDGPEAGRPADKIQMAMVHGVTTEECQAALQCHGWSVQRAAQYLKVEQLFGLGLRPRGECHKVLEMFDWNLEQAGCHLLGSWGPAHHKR

MAP3K8 (human) = MAP3K8 (human) (UniProt P41279)
CDC42BPA (human) = CDC42BPA (human) (UniProt Q5VT25)
TAOK1 (human) = TAOK1 (human) (UniProt Q7L7X3)
MAPK12 (human) = MAPK12 (human) (UniProt P53778)
MAPK12 (human), sequence (P53778 whole entry, looked up): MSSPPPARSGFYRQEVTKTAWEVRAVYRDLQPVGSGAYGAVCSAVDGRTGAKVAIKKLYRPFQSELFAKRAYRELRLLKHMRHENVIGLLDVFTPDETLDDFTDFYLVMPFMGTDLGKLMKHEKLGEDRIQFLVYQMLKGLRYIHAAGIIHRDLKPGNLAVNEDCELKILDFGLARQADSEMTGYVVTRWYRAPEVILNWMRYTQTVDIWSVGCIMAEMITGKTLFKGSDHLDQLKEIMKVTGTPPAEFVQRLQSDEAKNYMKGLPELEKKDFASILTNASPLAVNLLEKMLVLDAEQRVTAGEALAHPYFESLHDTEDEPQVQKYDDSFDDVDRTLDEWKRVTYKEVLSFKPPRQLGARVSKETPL

WNK3 (human) = WNK3 (human) (UniProt Q9BYP7)
MAPKAPK3 (human) = MAPKAPK3 (human) (UniProt Q16644)
PRKCG (human) = PRKCG (human) (UniProt P05129)
PIM3 (human) = PIM3 (human) (UniProt Q86V86)
EPHA5 (human) = EPHA5 (human) (UniProt P54756)
TAOK3 (human) = TAOK3 (human) (UniProt Q9H2K8)
STK11 (human) = STK11 (human) (UniProt Q15831)
INSRR (human) = INSRR (human) (UniProt P14616)
PKN1 (human) = PKN1 (human) (UniProt Q16512)
FGFR4 (human) = FGFR4 (human) (UniProt P22455)
PLK2 (human) = PLK2 (human) (UniProt Q9NYY3)
EPHB4 (human) = EPHB4 (human) (UniProt P54760)
EPHB4 (human), sequence (P54760 whole entry, looked up): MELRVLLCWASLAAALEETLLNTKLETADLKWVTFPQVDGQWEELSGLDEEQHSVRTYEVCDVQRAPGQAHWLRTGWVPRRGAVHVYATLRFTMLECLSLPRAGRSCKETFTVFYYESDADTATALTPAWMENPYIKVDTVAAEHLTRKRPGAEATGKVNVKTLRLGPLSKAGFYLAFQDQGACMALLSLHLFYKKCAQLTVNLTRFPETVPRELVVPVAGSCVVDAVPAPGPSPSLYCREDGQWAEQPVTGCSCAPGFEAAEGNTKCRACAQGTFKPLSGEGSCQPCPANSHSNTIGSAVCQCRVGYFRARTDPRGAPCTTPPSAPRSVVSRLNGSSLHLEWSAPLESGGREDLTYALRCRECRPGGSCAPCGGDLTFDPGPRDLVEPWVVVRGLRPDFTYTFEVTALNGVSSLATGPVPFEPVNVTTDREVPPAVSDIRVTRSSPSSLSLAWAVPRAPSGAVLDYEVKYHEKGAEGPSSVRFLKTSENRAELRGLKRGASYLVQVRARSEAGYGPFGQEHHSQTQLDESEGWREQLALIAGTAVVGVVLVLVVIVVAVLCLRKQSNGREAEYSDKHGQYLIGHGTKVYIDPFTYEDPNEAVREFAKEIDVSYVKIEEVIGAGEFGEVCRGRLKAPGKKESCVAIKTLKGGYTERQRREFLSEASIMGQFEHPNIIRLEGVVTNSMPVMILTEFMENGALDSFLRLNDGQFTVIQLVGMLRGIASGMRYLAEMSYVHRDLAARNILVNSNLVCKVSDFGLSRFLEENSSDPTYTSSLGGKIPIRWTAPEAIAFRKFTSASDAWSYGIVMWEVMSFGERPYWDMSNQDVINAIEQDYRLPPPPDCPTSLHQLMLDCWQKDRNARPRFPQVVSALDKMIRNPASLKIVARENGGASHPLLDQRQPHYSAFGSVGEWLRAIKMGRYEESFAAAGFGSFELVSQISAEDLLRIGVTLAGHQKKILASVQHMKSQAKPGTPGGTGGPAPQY

EPHA7 (human) = EPHA7 (human) (UniProt Q15375)
CDK1 CCNB1 (human) = CDK1 CCNB1 (human) (UniProt P06493+P14635)
FES (human) = FES (human) (UniProt P07332)
CSNK2A1 (human) = CSNK2A1 (human) (UniProt P68400)
RPS6KA4 KD2 (human) = RPS6KA4 KD2 (human) (UniProt O75676)
INSR (human) = INSR (human) (UniProt P06213)
INSR (human), sequence (P06213 whole entry, looked up): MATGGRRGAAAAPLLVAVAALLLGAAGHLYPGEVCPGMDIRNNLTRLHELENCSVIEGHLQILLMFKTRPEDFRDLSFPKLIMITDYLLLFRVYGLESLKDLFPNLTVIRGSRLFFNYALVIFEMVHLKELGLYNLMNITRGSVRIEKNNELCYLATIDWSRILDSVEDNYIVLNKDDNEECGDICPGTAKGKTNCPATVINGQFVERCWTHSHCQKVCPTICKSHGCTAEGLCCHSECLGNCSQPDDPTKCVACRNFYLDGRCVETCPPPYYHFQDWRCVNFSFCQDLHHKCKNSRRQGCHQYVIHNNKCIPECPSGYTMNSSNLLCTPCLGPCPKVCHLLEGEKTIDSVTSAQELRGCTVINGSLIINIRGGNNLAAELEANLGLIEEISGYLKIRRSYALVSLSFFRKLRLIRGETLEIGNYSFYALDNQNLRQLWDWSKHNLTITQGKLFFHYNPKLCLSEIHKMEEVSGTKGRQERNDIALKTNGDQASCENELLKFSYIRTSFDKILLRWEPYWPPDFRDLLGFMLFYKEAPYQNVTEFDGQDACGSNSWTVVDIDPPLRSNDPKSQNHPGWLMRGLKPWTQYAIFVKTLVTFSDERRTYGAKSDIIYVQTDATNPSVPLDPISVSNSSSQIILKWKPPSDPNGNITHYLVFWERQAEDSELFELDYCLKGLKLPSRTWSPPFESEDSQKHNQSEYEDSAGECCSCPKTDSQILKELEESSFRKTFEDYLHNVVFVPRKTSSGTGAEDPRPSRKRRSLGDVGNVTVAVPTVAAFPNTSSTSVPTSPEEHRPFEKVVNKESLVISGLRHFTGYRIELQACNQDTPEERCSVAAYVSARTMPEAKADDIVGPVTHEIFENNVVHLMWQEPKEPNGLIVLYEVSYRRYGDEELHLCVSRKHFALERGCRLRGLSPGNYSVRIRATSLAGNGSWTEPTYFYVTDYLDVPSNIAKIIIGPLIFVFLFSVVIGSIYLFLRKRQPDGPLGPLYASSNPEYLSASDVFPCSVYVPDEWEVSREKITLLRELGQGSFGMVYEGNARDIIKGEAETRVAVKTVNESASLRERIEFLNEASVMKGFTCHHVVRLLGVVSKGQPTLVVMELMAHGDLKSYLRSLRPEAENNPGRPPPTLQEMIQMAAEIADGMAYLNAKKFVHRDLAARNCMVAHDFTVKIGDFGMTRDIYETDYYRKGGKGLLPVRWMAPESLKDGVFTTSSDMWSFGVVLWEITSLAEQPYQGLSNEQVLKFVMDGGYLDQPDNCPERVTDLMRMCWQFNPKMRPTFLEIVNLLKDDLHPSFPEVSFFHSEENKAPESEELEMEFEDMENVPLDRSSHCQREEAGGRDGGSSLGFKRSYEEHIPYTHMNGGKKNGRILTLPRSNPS

CAMK1D (human) = CAMK1D (human) (UniProt Q8IU85)
MAP3K10 (human) = MAP3K10 (human) (UniProt Q02779)
SRPK3 (human) = SRPK3 (human) (UniProt Q9UPE1)
CDK2 CCNA2 (human) = CDK2 CCNA2 (human) (UniProt P24941+P20248)
CSNK1G2 (human) = CSNK1G2 (human) (UniProt P78368)
CSNK1G2 (human), sequence (P78368 whole entry, looked up): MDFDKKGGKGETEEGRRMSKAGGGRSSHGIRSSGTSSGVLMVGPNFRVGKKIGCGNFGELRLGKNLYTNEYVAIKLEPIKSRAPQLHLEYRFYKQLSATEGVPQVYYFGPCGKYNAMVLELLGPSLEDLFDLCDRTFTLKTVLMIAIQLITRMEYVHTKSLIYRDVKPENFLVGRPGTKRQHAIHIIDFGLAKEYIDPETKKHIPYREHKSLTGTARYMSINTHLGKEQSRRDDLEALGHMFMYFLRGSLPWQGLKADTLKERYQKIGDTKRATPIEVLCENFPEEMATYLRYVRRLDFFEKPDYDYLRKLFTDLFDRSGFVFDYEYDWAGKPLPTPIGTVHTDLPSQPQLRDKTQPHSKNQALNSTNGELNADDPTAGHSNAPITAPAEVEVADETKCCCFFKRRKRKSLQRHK

MATK (human) = MATK (human) (UniProt P42679)
CAMK2A (human) = CAMK2A (human) (UniProt Q9UQM7)
CAMK2A (human), sequence (Q9UQM7 whole entry, looked up): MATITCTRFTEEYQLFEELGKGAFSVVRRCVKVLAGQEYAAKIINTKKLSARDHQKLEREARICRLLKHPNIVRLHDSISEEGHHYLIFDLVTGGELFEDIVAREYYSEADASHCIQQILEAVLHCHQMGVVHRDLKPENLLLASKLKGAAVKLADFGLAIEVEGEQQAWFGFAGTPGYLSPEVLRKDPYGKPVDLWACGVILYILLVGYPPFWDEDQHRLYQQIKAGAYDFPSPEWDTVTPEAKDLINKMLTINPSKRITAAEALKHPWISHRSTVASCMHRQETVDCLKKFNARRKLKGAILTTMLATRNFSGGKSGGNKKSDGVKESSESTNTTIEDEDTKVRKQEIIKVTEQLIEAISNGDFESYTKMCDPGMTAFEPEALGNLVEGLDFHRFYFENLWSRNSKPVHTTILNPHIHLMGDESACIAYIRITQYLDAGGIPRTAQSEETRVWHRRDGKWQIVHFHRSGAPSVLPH

[1] = molecular target: TYK2 JH1 catalytic (human) (UniProt P29597)
FGFR1 (human) = FGFR1 (human) (UniProt P11362)
PAK2 (human) = PAK2 (human) (UniProt Q13177)
CAMK1 (human) = CAMK1 (human) (UniProt Q14012)
EPHB1 (human) = EPHB1 (human) (UniProt P54762)
ZAP70 (human) = ZAP70 (human) (UniProt P43403)
CSNK1E (human) = CSNK1E (human) (UniProt P49674)

With `CCOc1cc2ncnc(Nc3cccc(Br)c3)c2cc1OCC` the residual activity (GRK5 (human)) was 104%, the residual activity (CAMK2B (human)) was 98.8% and the residual activity (IGF1R (human)) was 101%. The residual activity (AKT1 (human)) was 112%, the residual activity (MAPK8 (human)) was 90.7% and the residual activity (TNK2 (human)) was 58.8%. For the same compound, the residual activity (MAP3K8 (human)) was 106%, the residual activity (CDC42BPA (human)) was 85.4% and the residual activity (TAOK1 (human)) was 99.9%. The residual activity (MAPK12 (human)) was 105%, the residual activity (WNK3 (human)) was 96.5% and the residual activity (MAPKAPK3 (human)) was 87.4%. For the same compound, the residual activity (PRKCG (human)) was 83%, the residual activity (PIM3 (human)) was 105% and the residual activity (EPHA5 (human)) was 69.5%. It also gave a residual activity (TAOK3 (human)) of 96.2%, a residual activity (STK11 (human)) of 88% and a residual activity (INSRR (human)) of 88.8%. It also gave a residual activity (PKN1 (human)) of 100%, a residual activity (FGFR4 (human)) of 87.1% and a residual activity (PLK2 (human)) of 99.8%. It also gave a residual activity (EPHB4 (human)) of 43%, a residual activity (EPHA7 (human)) of 58.5% and a residual activity (CDK1 CCNB1 (human)) of 80.8%. The residual activity (FES (human)) was 96.8%, the residual activity (CSNK2A1 (human)) was 95.9% and the residual activity (RPS6KA4 KD2 (human)) was 95.4%. For the same compound, the residual activity (INSR (human)) was 98.7%, the residual activity (CAMK1D (human)) was 102% and the residual activity (MAP3K10 (human)) was 93.2%. The residual activity (SRPK3 (human)) was 93.5%, the residual activity (CDK2 CCNA2 (human)) was 91.9% and the residual activity (CSNK1G2 (human)) was 103%. For the same compound, the residual activity (MATK (human)) was 90.5%, the residual activity (CAMK2A (human)) was 103% and the residual activity [1] was 107%. The residual activity (FGFR1 (human)) was 90.9%, the residual activity (PAK2 (human)) was 105% and the residual activity (CAMK1 (human)) was 79.9%. It also gave a residual activity (EPHB1 (human)) of 73.8%, a residual activity (ZAP70 (human)) of 105% and a residual activity (CSNK1E (human)) of 93.8%.

`O=c1cc(N2CCOCC2)oc2c(-c3ccccc3)cccc12` was tested, and the residual activity (GRK5 (human)) was 91.6%, the residual activity (CAMK2B (human)) was 110% and the residual activity (IGF1R (human)) was 102%. For the same compound, the residual activity (AKT1 (human)) was 95.7%, the residual activity (MAPK8 (human)) was 106% and the residual activity (TNK2 (human)) was 88.7%. For the same compound, the residual activity (MAP3K8 (human)) was 98.2%, the residual activity (CDC42BPA (human)) was 104% and the residual activity (TAOK1 (human)) was 86.4%. The residual activity (MAPK12 (human)) was 104%, the residual activity (WNK3 (human)) was 89.2% and the residual activity (MAPKAPK3 (human)) was 101%. It also gave a residual activity (PRKCG (human)) of 94.2%, a residual activity (PIM3 (human)) of 88.5% and a residual activity (EPHA5 (human)) of 113%. It also gave a residual activity (TAOK3 (human)) of 88.2%, a residual activity (STK11 (human)) of 101% and a residual activity (INSRR (human)) of 97.7%. For the same compound, the residual activity (PKN1 (human)) was 109%, the residual activity (FGFR4 (human)) was 104% and the residual activity (PLK2 (human)) was 98.9%. For the same compound, the residual activity (EPHB4 (human)) was 99.5%, the residual activity (EPHA7 (human)) was 102% and the residual activity (CDK1 CCNB1 (human)) was 115%. For the same compound, the residual activity (FES (human)) was 96.6%, the residual activity (CSNK2A1 (human)) was 64.8% and the residual activity (RPS6KA4 KD2 (human)) was 111%. The residual activity (INSR (human)) was 104%, the residual activity (CAMK1D (human)) was 47.9% and the residual activity (MAP3K10 (human)) was 90.1%. It also gave a residual activity (SRPK3 (human)) of 95.5%, a residual activity (CDK2 CCNA2 (human)) of 106% and a residual activity (CSNK1G2 (human)) of 94.4%. The residual activity (MATK (human)) was 84.6%, the residual activity (CAMK2A (human)) was 91.1% and the residual activity [1] was 103%. The residual activity (FGFR1 (human)) was 96.6%, the residual activity (PAK2 (human)) was 103% and the residual activity (CAMK1 (human)) was 96.7%. The residual activity (EPHB1 (human)) was 95.9%, the residual activity (ZAP70 (human)) was 102% and the residual activity (CSNK1E (human)) was 103%.

For `O=C(O)c1ccc2c3c1cccc3c(=O)n1c3ccccc3nc21`, the residual activity (GRK5 (human)) was 97.1%, the residual activity (CAMK2B (human)) was 92.6% and the residual activity (IGF1R (human)) was 100%. It also gave a residual activity (AKT1 (human)) of 101%, a residual activity (MAPK8 (human)) of 98% and a residual activity (TNK2 (human)) of 101%. For the same compound, the residual activity (MAP3K8 (human)) was 88.3%, the residual activity (CDC42BPA (human)) was 96.1% and the residual activity (TAOK1 (human)) was 93.3%. The residual activity (MAPK12 (human)) was 103%, the residual activity (WNK3 (human)) was 95.8% and the residual activity (MAPKAPK3 (human)) was 103%. It also gave a residual activity (PRKCG (human)) of 99.1%, a residual activity (PIM3 (human)) of 4.96% and a residual activity (EPHA5 (human)) of 94.2%. For the same compound, the residual activity (TAOK3 (human)) was 93.1%, the residual activity (STK11 (human)) was 96.6% and the residual activity (INSRR (human)) was 101%. The residual activity (PKN1 (human)) was 99.5%, the residual activity (FGFR4 (human)) was 88.6% and the residual activity (PLK2 (human)) was 97%. For the same compound, the residual activity (EPHB4 (human)) was 90.6%, the residual activity (EPHA7 (human)) was 103% and the residual activity (CDK1 CCNB1 (human)) was 65%. It also gave a residual activity (FES (human)) of 98.2%, a residual activity (CSNK2A1 (human)) of 28.3% and a residual activity (RPS6KA4 KD2 (human)) of 110%. It also gave a residual activity (INSR (human)) of 91.5%, a residual activity (CAMK1D (human)) of 100% and a residual activity (MAP3K10 (human)) of 99.3%. For the same compound, the residual activity (SRPK3 (human)) was 82.8%, the residual activity (CDK2 CCNA2 (human)) was 82.7% and the residual activity (CSNK1G2 (human)) was 93.5%. For the same compound, the residual activity (MATK (human)) was 94%, the residual activity (CAMK2A (human)) was 85.2% and the residual activity [1] was 22.8%. It also gave a residual activity (FGFR1 (human)) of 84.7%, a residual activity (PAK2 (human)) of 97% and a residual activity (CAMK1 (human)) of 101%. It also gave a residual activity (EPHB1 (human)) of 97.5%, a residual activity (ZAP70 (human)) of 119% and a residual activity (CSNK1E (human)) of 96%.
